Source: patent publication US20240415819A1, “MACROCYCLIC COMPOUNDS AS PROTEASOME SUBUNIT BETA TYPE-5 INHIBITORS” (Lead Discovery Center GmbH, priority 2021, published 2024)

Tests used:
[1] = target: T1, β5 subunit of the human immunoproteasome (IPS) (Homo sapiens, UniProt P28062); test: β5 inhibition assay, human immunoproteasome (Suc-LLVY-AMC); format: biochemical; conditions: IC50 class, Suc-LLVY-AMC substrate
T1 construct: purchased Boston Biochem E-370
How it was run: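 Human immunoproteasome (1 nM final) was preincubated 10 min at RT with compound in 100 mM HEPES pH 7.5, 50 mM NaCl, 0.02% SDS, 1 mM DTT. Suc-LLVY-AMC (22.6 μM final) was then added for 4 h at RT in the dark. After stopping with 1 μM bortezomib, AMC fluorescence was read (ex 355/em 460 nm).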

[2] = target: T2, β5 subunit of the human constitutive proteasome (CPS) (Homo sapiens, UniProt P28074); test: β5 inhibition assay, human constitutive proteasome (Suc-LLVY-AMC); format: biochemical; conditions: IC50 class, Suc-LLVY-AMC substrate
T2 construct: purchased Boston Biochem E-360
Method: The enzymatic activity of the β5 subunit of the human constitutive proteasome (CPS) is analyzed. In another assay, which differs from the assay of the human constitutive proteasome only in using the human immunoproteasome (IPS) the enzymatic activity of the β5 subunit of the human immunoproteasome (IPS) is analyzed. […] Inhibition is indicated as IC50 [nM] (“-”=not measured).

[3] = tested on: Hs 746T (human gastric carcinoma cell line); test: 48 hr CTG viability assay, Hs 746T; format: cell-based; conditions: Hs746T, 48 hr CTG, read-out: Hs 746T IC50
How it was run: (§1)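 Growth inhibition by compound over 48 h; IC50 (nM) derived from duplicate CellTiter-Glo luminescence readings across 0.0015–10 uM.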

[4] = tested on: MM1 S (B lymphoblast cell line); test: 48 hr CTG viability assay, MM1S; format: cell-based; conditions: Homo sapiens, 48 hr CTG, read-out: MM1S IC50
How it was run: as §1

[5] = tested on: A549 (human lung carcinoma cell line); test: Glo assay of A549 cells (Table 3; ProteasomeGlo plating scheme); format: cell-based; conditions: Homo sapiens; A549 cells; read-out: PGLo A549
How it was run: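 Luminescent read-out of cellular chymotrypsin-like proteasome activity: cells exposed to compound 105 min at 37° C., 5% CO2, then given Suc-LLVY-Glo reagent, shaken 2-5 min and kept dark 10-15 min before reading. Values are IC50 [nM].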

[6] = tested on: RPMI 8226 (B lymphocyte cell line, multiple myeloma); test: 48 hr CTG viability assay, RPMI 8226; format: cell-based; conditions: Homo sapiens, RPMI-8226; 48 hr CTG; read-out: RPMI-8226 IC50
How it was run: as §1

SMILES	IC50 [1] [nM]	IC50 [2] [nM]	IC50 [3] [nM]	IC50 [4] [nM]	IC50 [5] [nM]	IC50 [6] [nM]
Cc1ccc2cc1CNC(=O)[C@H](CCc1ccccc1)NC(=O)[C@@H](NC(=O)C1CC3(C1)CN(C)C3)CC(=O)N1CCCC(CCO2)C1 (stereo partly drawn) [Compound 714, 2-methyl-N-((9S,12S)-5^4-methyl-8,11,14-trioxo-9-phenethyl-4-oxa-7,10-diaza-1(3,1)-piperidina-5(1,3)-benzenacyclotetradecaphane-12-yl)-2-azaspiro[3.3]heptane-6-carboxamide]	< 100	< 100	100 to 500	100 to 500	< 100	< 100
Cc1ccc2cc1CNC(=O)[C@H](CCc1ccccc1)NC(=O)[C@@H](NC(=O)N1CC(C)(C)c3cc(N)ccc31)CC(=O)N1CCCC(CCO2)C1 (stereo partly drawn) [Compound 666, 5-amino-3,3-dimethyl-N-((9S,12S)-5^4-methyl-8,11,14-trioxo-9-phenethyl-4-oxa-7,10-diaza-1(3,1)-piperidina-5(1,3)-benzenacyclotetradecaphane-12-yl)indoline-1-carboxamide]	< 100	< 100	< 100	< 100	< 100	< 100
Cc1ccc2cc1CNC(=O)[C@H](CCc1ccccc1)NC(=O)[C@@H](NC(=O)CCNC(=O)C1CC3CCC1O3)CC(=O)N1CCCC(CCO2)C1 (stereo partly drawn) [Compound 701, N-(3-(((9S,12S)-5^4-methyl-8,11,14-trioxo-9-phenethyl-4-oxa-7,10-diaza-1(3,1)-piperidina-5(1,3)-benzenacyclotetradecaphane-12-yl)amino)-3-oxopropyl)-7-oxabicyclo[2.2.1]heptane-2-carboxamide]	< 100	< 100	< 100	< 100	< 100	< 100
Cc1ccc2cc1CNC(=O)[C@H](CCc1ccccc1)NC(=O)[C@@H](NC(=O)Cc1ccccc1)CCNC(=O)N1CCCC(CCO2)C1 (stereo partly drawn) [Compound 653, N-((9S,12S)-5^4-methyl-8,11,16-trioxo-9-phenethyl-4-oxa-7,10,15-triaza-1(3,1)-piperidina-5(1,3)-benzenacyclohexadecaphane-12-yl)-2-phenylacetamide]	< 100	< 100	< 100	< 100	< 100	< 100
Cc1ccc2cc1CNC(=O)[C@H](CCc1ccccc1)NC(=O)[C@@H](NC(=O)CCN1CCC3(COC3)C1)CC(=O)N1CCCC(CCO2)C1 (stereo partly drawn) [Compound 648, N-((9S,12S)-5^4-methyl-8,11,14-trioxo-9-phenethyl-4-oxa-7,10-diaza-1(3,1)-piperidina-5(1,3)-benzenacyclotetradecaphane-12-yl)-3-(2-oxa-6-azaspiro[3.4]octan-6-yl)propanamide]	< 100	< 100	< 100	< 100	< 100	< 100
Cc1ccc2cc1CNC(=O)[C@H](CCc1ccccc1)NC(=O)[C@@H](NC(=O)CCN1CC3(CCOCC3)C1)CC(=O)N1CCCC(CCO2)C1 (stereo partly drawn) [Compound 658, N-((9S,12S)-5^4-methyl-8,11,14-trioxo-9-phenethyl-4-oxa-7,10-diaza-1(3,1)-piperidina-5(1,3)-benzenacyclotetradecaphane-12-yl)-3-(7-oxa-2-azaspiro[3.5]nonan-2-yl)propanamide]	< 100	< 100	< 100	< 100	< 100	< 100
Cc1ccc2cc1CNC(=O)[C@H](CCc1ccccc1)NC(=O)[C@@H](NC(=O)CCNC1CC1)CC(=O)N1CCCC(CCO2)C1 (stereo partly drawn) [Compound 649, 3-(cyclopropylamino)-N-((9S,12S)-5^4-methyl-8,11,14-trioxo-9-phenethyl-4-oxa-7,10-diaza-1(3,1)-piperidina-5(1,3)-benzenacyclotetradecaphane-12-yl)propanamide]	< 100	< 100	< 100	< 100	< 100	< 100
Cc1ccc2cc1CNC(=O)[C@H](CCc1ccccc1)NC(=O)[C@@H](NC(=O)CCN1CC3CCC1C3)CC(=O)N1CCCC(CCO2)C1 (stereo partly drawn) [Compound 673, 3-(2-azabicyclo[2.2.1]heptan-2-yl)-N-((9S,12S)-5^4-methyl-8,11,14-trioxo-9-phenethyl-4-oxa-7,10-diaza-1(3,1)-piperidina-5(1,3)-benzenacyclotetradecaphane-12-yl)propanamide]	< 100	< 100	< 100	< 100	< 100	< 100
C#CCC[C@@H]1NC(=O)[C@@H](NC(=O)Cc2cn3ccsc3n2)CC(=O)N2CCCC(CCOc3ccc(C)c(c3)CNC1=O)C2 (stereo partly drawn) [Compound 686, N-((9S,12S)-9-(but-3-yn-1-yl)-5^4-methyl-8,11,14-trioxo-4-oxa-7,10-diaza-1(3,1)-piperidina-5(1,3)-benzenacyclotetradecaphane-12-yl)-2-(imidazo[2,1-b]thiazol-6-yl)acetamide]	< 100	< 100	< 100	< 100	< 100	< 100
Cc1ccc2cc1CNC(=O)[C@H](CCc1ccccc1)NC(=O)[C@@H](NC(=O)N1CCC(C)(O)CC1)CC(=O)N1CCCC(CCO2)C1 (stereo partly drawn) [Compound 676, 4-hydroxy-4-methyl-N-((9S,12S)-5^4-methyl-8,11,14-trioxo-9-phenethyl-4-oxa-7,10-diaza-1(3,1)-piperidina-5(1,3)-benzenacyclotetradecaphane-12-yl)piperidine-1-carboxamide]	< 100	< 100	< 100	< 100	< 100	< 100
COc1ccccc1OCCC(=O)N[C@H]1CC(=O)N2CCCC(CCOc3ccc(C)c(c3)CNC(=O)[C@H](CCc3ccccc3)NC1=O)C2 (stereo partly drawn) [Compound 588, 3-(2-methoxyphenoxy)-N-((9S,12S)-5^4-methyl-8,11,14-trioxo-9-phenethyl-4-oxa-7,10-diaza-1(3,1)-piperidina-5(1,3)-benzenacyclotetradecaphane-12-yl)propanamide]	< 100	< 100	< 100	< 100	< 100	< 100
Cc1ccc2cc1CNC(=O)[C@H](CCc1ccccc1)NC(=O)[C@@H](NC(=O)C13CC(N)(C1)C3)CC(=O)N1CCCC(CCO2)C1 (stereo partly drawn) [Compound 662, 3-amino-N-((9S,12S)-5^4-methyl-8,11,14-trioxo-9-phenethyl-4-oxa-7,10-diaza-1(3,1)-piperidina-5(1,3)-benzenacyclotetradecaphane-12-yl)bicyclo[1.1.1]pentane-1-carboxamide]	< 100	< 100	< 100	< 100	< 100	< 100
Cc1ccc2cc1CNC(=O)[C@H](CCc1ccccc1)NC(=O)[C@@H](NC(=O)CCN1CCC3(CCOC3)CC1)CC(=O)N1CCCC(CCO2)C1 (stereo partly drawn) [Compound 621, N-((9S,12S)-5^4-methyl-8,11,14-trioxo-9-phenethyl-4-oxa-7,10-diaza-1(3,1)-piperidina-5(1,3)-benzenacyclotetradecaphane-12-yl)-3-(2-oxa-8-azaspiro[4.5]decan-8-yl)propanamide]	< 100	< 100	< 100	< 100	< 100	< 100
Cc1ccc2cc1CNC(=O)[C@H](CCc1ccccc1)NC(=O)[C@@H](NC(=O)CCNCc1ccc(-c3ccncc3)cc1)CC(=O)N1CCCC(CCO2)C1 (stereo partly drawn) [Compound 603, N-((9S,12S)-5^4-methyl-8,11,14-trioxo-9-phenethyl-4-oxa-7,10-diaza-1(3,1)-piperidina-5(1,3)-benzenacyclotetradecaphane-12-yl)-3-((4-(pyridin-4-yl)benzyl)amino)propanamide]	< 100	< 100	< 100	< 100	< 100	< 100
Cc1ccc2cc1CNC(=O)[C@H](CCc1ccccc1)NC(=O)[C@@H](NS(=O)(=O)CC(F)(F)F)CC(=O)N1CCCC(CCO2)C1 (stereo partly drawn) [Compound 601, 2,2,2-trifluoro-N-((9S,12S)-5^4-methyl-8,11,14-trioxo-9-phenethyl-4-oxa-7,10-diaza-1(3,1)-piperidina-5(1,3)-benzenacyclotetradecaphane-12-yl)ethane-1-sulfonamide]	< 100	< 100	< 100	< 100	< 100	< 100
